In article PMC9654711, “Neuroprotective Action of Coumarin Derivatives through Activation of TRKB-CREB-BDNF Pathway and Reduction of Caspase Activity in Neuronal Cells Expressing Pro-Aggregated Tau Protein” (International Journal of Molecular Sciences, 2022):

Columns and labels:
[1] = target: T1, TRKB-ECD-His (extracellular domain of TRKB) (Homo sapiens, UniProt Q16620); assay: Tryptophan fluorescence quenching assay; details: TRKB-ECD-His 50 nM in PBS; excitation 295 nm, emission 330 nm; compounds 0–1000 nM; read-out: TRKB-ECD binding affinity (KD)
T1 construct: extracellular domain of TRKB (TRKB-ECD) (residues 32–429, XP_016870240); Saccharomyces cerevisiae α-factor secretion signal (N, cleaved yes); made in house; host or cells: Pichia pastoris
T1 sequence (Q16620 32-429): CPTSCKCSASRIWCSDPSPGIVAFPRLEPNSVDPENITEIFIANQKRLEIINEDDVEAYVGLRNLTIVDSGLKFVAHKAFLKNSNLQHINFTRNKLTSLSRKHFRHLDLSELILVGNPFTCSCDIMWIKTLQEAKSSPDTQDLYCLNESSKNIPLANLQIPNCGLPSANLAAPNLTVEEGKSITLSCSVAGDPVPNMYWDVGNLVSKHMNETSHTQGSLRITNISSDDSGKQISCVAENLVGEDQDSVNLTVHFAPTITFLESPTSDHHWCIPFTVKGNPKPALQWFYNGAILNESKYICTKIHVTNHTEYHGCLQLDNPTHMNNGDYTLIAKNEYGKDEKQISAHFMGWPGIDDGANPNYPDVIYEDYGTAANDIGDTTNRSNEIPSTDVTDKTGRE
From the text: The cDNA fragment containing the full-length extracellular domain of TRKB (TRKB-ECD) (residues 32–429, XP_016870240) was amplified from pDONR223-NTRK2 plasmid (Addgene, Watertown, MA, USA) using forward primer 5′-ctcgagaaaagagaggctgaagctTGTCCCACGTCCTGAAATG (XhoI site and Kex2 cleavage of the signal sequence in lowercase letters) and reverse primer 5′-gtcgac[…] (SalI site in lowercase letters). After cloning and sequencing, the TRKB-ECD fragment was excised with XhoI and SalI and subcloned into Pichia expression vector pGAPZα A (Invitrogen). The AvrII-linearized plasmid was then transformed into Pichia pastoris, and stable transformants selected and cultured at 30 °C for 4 days for constitutive expression of recombinant His-tagged TRKB-ECD. The secreted TRKB-ECD-His in cultured medium was purified using Ni-NTA His•Bind resins (Novagen, Madison, WI 53719, USA) according to the supplier’s instructions. Protein purity was examined by Coomassie blue staining of SDS-polyacrylamide gel as well as immunoblotting using anti-His (1:2000; Acris, Herford, Germany) and anti-TRKB (1:1000; Cell Signaling) antibodies.
The interaction between TRKB-ECD-His and LM-031, LMDS-1 or LMDS-2 was determined by tryptophan fluorescence titration. 7,8-DHF (Sigma-Aldrich) was included as a positive control. Tryptophan fluorescence spectra of TRKB-ECD-His (50 nM in PBS) were obtained before and after titration with different concentrations of test compounds (0–1000 nM). The fluorescent quenching was conducted in a cuvette with a 1 cm path length cell by an F-7000 fluorescence spectrophotometer (Hitachi, Tokyo, Japan) at room temperature. The intrinsic fluorescence spectra of TRKB were recorded with excitation wavelength set at 295 nm and emission wavelength in the range 300–400 nm. The dissociation constant (KD) of 7,8-DHF, LM-031, LMDS-1 and LMDS-2 to TRKB was determined by fitting the normalized fluorescence intensity at 330 nm under different concentrations of test compounds using the equation derived from Liu et al.:KD = [P]T (f − 1) + [D]T (1/f − 1), where f is the fractional change, and [P]Tand [D]Tare the total concentration of TRKB-ECD-His protein and test compound, respectively.

[2] = High-content analysis of ΔK280 tauRD-DsRed fluorescence and cell number (folding reporter); format: cell-based, human; details: human; induced ΔK280 tauRD-DsRed SH-SY5Y; compounds 2.5–10 µM; read-out: IC50 cytotoxicity based on the cell number analyzed
Procedure: (§1) On day 1, ∆K280 tauRD-DsRed SH-SY5Y cells were seeded in a 96-well plate (3 × 10^4/well), with retinoic acid (10 µM; Sigma-Aldrich) added to induce neuronal differentiation. […] […] For ROS measurement, dichloro-dihydro-fluorescein diacetate (DCFH-DA, 10 µM; Invitrogen, Carlsbad, CA, USA) was added to the cells on day 8 and incubated at 37 °C for 30 min.

[3] = tested on: ΔK280 tauRD-DsRed SH-SY5Y cells; assay: High-content analysis of neurite outgrowth; format: cell-based, human; details: 10 µM
Procedure: As described, ∆K280 tauRD-DsRed SH-SY5Y cells were seeded in a 24-well plate (5 × 10^4/well) with retinoic acid addition on day 1, treated with tested compounds (10 µM) and ∆K280 tauRD-DsRed expression was induced with doxycycline (2 μg/mL) on day 2. On day 8, after being fixed in 4% paraformaldehyde for 15 min, permeabilized in 0.1% Triton X-100 for 10 min and blocked in 3% bovine serum albumin (BSA) for 20 min, the cells were stained with TUBB3 (neuronal class III β-tubulin) primary antibody (1:1000; BioLegend, San Diego, CA, USA) at 4 °C overnight, followed by goat anti-rabbit Alexa Fluor® 555 secondary antibody (1:1000; Molecular probes) at room temperature for 2 h, with 4′-6-diamidino-2-phenylindole (DAPI, 0.1 µg/mL; Sigma-Aldrich) included for nuclei staining. Neuronal images were captured using the high-content analysis system as described. Neurite total length (μm), processes (primary neurite extensions projecting directly from the cell body) and branching (points at which primary neurites bifurcated) were analyzed using Neurite Outgrowth Application Module (MetaXpress; Molecular Devices). Around 5000 cells were analyzed in each of three independent experiments for each sample.

[4] = DPPH free radical-scavenging assay; details: compounds tested 10–80 μM; DPPH 100 µM; linear interpolation
Procedure: The potential free radical-scavenging activity of test compounds was assayed using stable free radical 1,1-diphenyl-2-picrylhydrazyl (DPPH) (Sigma-Aldrich). Briefly, kaempferol, LM-031 or LMDS-1 to -4 (10–80 µM) was added to DPPH (100 µM in 99% ethanol). The solution was vortexed for 15 s, left for 30 min at room temperature, the mixture was transferred to a 96-well UV-transparent microplate and the absorbance at 517 nm was measured using a Multiskan^TM GO microplate spectrophotometer (Thermo Fisher Scientific, Waltham, MA, USA). Radical-scavenging activity was calculated using the equation: 1 − (absorbance of sample/absorbance of control) × 100%, and EC50 estimated using the linear interpolation method.

[5] = target: T2, E. coli-expressed ΔK280 tauRD protein (Homo sapiens, UniProt P10636, DEL597-597); assay: Anti-ΔK280 tauRD aggregation assay (thioflavin T); format: biochemical; details: compounds tested 1–10 μM, 20 μM protein, 48 h, linear interpolation, read-out: EC50 for ΔK280 tauRD aggregation inhibition
T2 construct: assessed by using E. coli-expressed ΔK280 tauRD protein; made in house; host or cells: E. coli
T2 sequence (P10636 with tags, fused parts or gaps DEL597-597): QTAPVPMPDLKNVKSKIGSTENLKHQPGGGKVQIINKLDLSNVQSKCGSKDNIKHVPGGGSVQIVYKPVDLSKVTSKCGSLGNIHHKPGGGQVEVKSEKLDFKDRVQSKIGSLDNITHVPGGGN
Procedure: Thioflavin T is widely used to visualize and quantify the presence of misfolded amyloid protein aggregates in vitro [74]. The tau aggregation inhibiting potential of Congo red, LM-031 and LMDS-1 to -4 was assessed by using E. coli-expressed ΔK280 tauRD protein [28]. Briefly, purified ΔK280 tauRD protein (20 μM) was incubated with Congo red or coumarin compounds (1–10 μM) in 150 mM NaCl and 20 mM Tris-HCl pH8.0, at 37 °C with shaking for 48 h to form aggregates. Then, thioflavin T (final 5 μM; Acros Organics, Geel, Belgium) was added and incubated for 25 min at room temperature. Fluorescence intensity of samples was recorded at excitation/emission wavelengths of 420/485 nm using an FLx800 microplate reader (BioTek, Winooski, VT, USA). The half maximal effective concentration (EC50) values were calculated by using a linear interpolation method.

[6] = Oxygen radical antioxidant capacity (ORAC) assay; details: compound at 100 μM
Procedure: In addition, an oxygen radical antioxidant capacity (ORAC) assay was performed using an OxiSelect™ kit according to the manufacturer’s instruction (Cell Biolabs, San Diego, CA, USA). Briefly, Trolox standards (2.5–50 μM) and samples (4–100 μM) were diluted with 50% acetone. Blank (50% acetone), standards and samples were mixed with fluorescein and incubated at 37 °C for 30 min. Following the free radical initiator 2,2′-azobis(2-methylpropionamidine) dihydrochloride (AAPH), the produced peroxyl radicals (ROO•) quench the fluorescent probe over time. Antioxidants present in the assay block the peroxyl radical oxidation of the fluorescent probe. The course of the reaction was recorded for 60 min, with one measurement every five minutes using a BioTek FLx800 microplate reader. The excitation and emission wavelengths were set at 480 nm and 520 nm, respectively. To quantify the oxygen radical antioxidant activity in a sample, the area under the curve (AUC) for blank, standard and samples was calculated. After subtraction of the blank, the equivalent Trolox concentrations of samples were expressed based on the Trolox standard curve.

[7] = tested on: ΔK280 tauRD-DsRed SH-SY5Y folding reporter cells; assay: High-content analysis of ΔK280 tauRD-DsRed fluorescence and cell number (folding reporter); format: cell-based, human; details: BDNF at 100 ng/mL, LMDS-1/2 at 10 μM; untreated = 100%; Figure 6A
Procedure: as §1

p-TRKB (Y516 and Y817) = assay: Immunoblot of p-TRKB (Y516 and Y817); format: cell-based, human; details: BDNF 100 ng/mL, LMDS-1/2 10 μM; induced untreated 77–83%; Figure 6B
Procedure: (§2) ∆K280 tauRD-DsRed SH-SY5Y cells in 6-well plates (5 × 10^5/well) were treated with retinoic acid (10 µM) on day 1, followed by LMDS-1 or -2 (10 µM) and doxycycline (2 µg/mL) addition on day 2 as described. ERK inhibitor U0126 or PI3K inhibitor wortmannin (10 μM) (LC Laboratories, Woburn, MA, USA) was added on day 6. On day 8, the cells were collected for BDNF, BCL2, BAX and total/phosphorylated TRKB, ERK, AKT, CREB protein analyses as described.
(§3) ∆K280 tauRD-DsRed SH-SY5Y cells were lysed in buffer containing 50 mM Tris-HCl (pH 8.0), 150 mM NaCl, 1 mM EDTA (pH 8.0), 1 mM EGTA (pH 8.0), 0.1% SDS, 0.5% sodium deoxycholate, 1% Triton X-100 and protease (Sigma-Aldrich)/phosphatase (Roche, Basel, Switzerland) inhibitor cocktails. After two sonications with an interval of 30 min on ice, cell lysates were collected by centrifugation at 14,000× g for 30 min at 4 °C. Protein concentrations were determined using a Bradford assay (Bio-Rad, Hercules, CA, USA). Protein samples (25 µg) were separated by 10–12% SDS-PAGE and transferred to polyvinylidene difluoride (PVDF) membranes (Sigma-Aldrich). After blocking for 2 h with 10% skimmed milk or 5% BSA in 0.1% Tween 20 in Tris-buffered saline (TBST), the membrane was incubated with primary antibody against BDNF (1:500; Santa Cruz, Santa Cruz, CA, USA), BCL2 (1:500; BioVision), BAX (1:500; BioVision), TRKB (1:1000; Cell Signaling, Danvers, MA, USA), p-TRKB (Y516) (1:1000; Cell Signaling), p-TRKB (Y817) (1:1000; Millipore, Billerica, MA, USA), ERK (1:1000; Cell Signaling), p-ERK (T202/Y204) (1:500; Cell Signaling), AKT (1:1000; Cell Signaling), p-AKT (S473) (1:1000; Cell Signaling), CREB (1:1000; Santa Cruz), p-CREB (S133) (1:1000; Millipore), JNK (1:1000; Cell Signaling), p-JNK (T183/Y185) (1:1000; Cell Signaling) or loading control glyceraldehyde-3-phosphate dehydrogenase (GAPDH) (1:1000; MDBio, Taipei, Taiwan). After three washes with TBST, the immune complexes were detected using horseradish peroxidase-conjugated goat anti-mouse or goat anti-rabbit secondary IgG antibody (1:5000, GeneTex, Irvine, CA, USA) and enhanced chemiluminescence substrates luminol and peroxide (Millipore). The primary and secondary antibodies used were diluted with TBST. The chemiluminescent detection was performed on ImageQuant™ LAS 4000mini (GE Healthcare).

p-CREB (S133) = assay: Immunoblot of p-CREB (S133); format: cell-based, human; details: BDNF 100 ng/mL, LMDS-1/2 10 μM; induced untreated 72%; Figure 6B
Procedure: as §2, §3

O=c1cc(-c2ccccc2)oc2c(O)c(O)ccc12 [7,8-DHF, 7,8-dihydroxyflavone, reference compound]
Kd [1]: 0.016 ± 0.0034 µM

Nc1c(/N=N/c2ccc(-c3ccc(/N=N/c4cc(S(=O)(=O)O)c5ccccc5c4N)cc3)cc2)cc(S(=O)(=O)O)c2ccccc12 [Congo red, reference compound]
IC50 at 6 days [2]: 45 µM | Neurite branching ([3]; induced untreated 0.87, uninduced 0.99): 1.00–1.06 | Neurite length ([3]; induced untreated 27.2 μm, uninduced 30.9 μm): 30.3–31.5 μm

O=c1c(O)c(-c2ccc(O)cc2)oc2cc(O)cc(O)c12 [Kaempferol, kaempferol, reference compound]
EC50 [4]: 28 µM

COc1ccc2cc(C(=O)c3ccccc3)c(=O)oc2c1 [LMDS-3]
EC50 [5]: 21 µM | EC50 [4]: 132 µM | Oxygen radical absorbance capacity, activity equivalent to Trolox [6]: 12 μM Trolox | IC50 at 6 days [2]: 29 µM

CC(=O)Oc1ccc2cc(C(=O)c3ccccc3)c(=O)oc2c1 [LMDS-4]
EC50 [5]: 14 µM | EC50 [4]: 126 µM | Oxygen radical absorbance capacity, activity equivalent to Trolox [6]: 16 μM Trolox | IC50 at 6 days [2]: 25 µM

BDNF: Brain-derived neurotrophic factor
DsRed fluorescence intensity [7]: 111–112% | p-TRKB (Y516/Y817) level (p-TRKB (Y516 and Y817)): 96–104% | p-CREB level (p-CREB (S133)): 90–95%
